The results in this text go back to PubChem BioAssay AID200 (DTP/NCI, 2004).

In the test the test system is B6C3F1 mice, B16 melanoma ip, median survival T/C. Description: NCI In Vivo Anticancer Drug Screen. Data for tumor model B16 Melanoma (intraperitoneal) in B6C3F1 mice. As to conditions: endpoint: median survival time, higher = longer survival. As for the experimental part: The antitumor activity of compounds was measured in mice bearing transplantable tumors. Survival or tumor size were measured and the results are expressed as the measurement made in the treated group (T) divided by the measurement made in the vehicle treated control group (C). The tumor model used in this assay is B16 Melanoma (intraperitoneal) in B6C3F1 mice

Setting [1] is: dose: 0.5 mg/kg/injection, schedule: Q01DX009 (ip), vehicle: saline with Tween-80.
The mark [2] stands for this setting: dose: 2.0 mg/kg/injection, schedule: Q01DX009 (ip), vehicle: saline with Tween-80.
Where [3] appears, read: dose: 6.25 mg/kg/injection, schedule: Q01DX009 (ip), vehicle: saline with Tween-80.
The mark [4] stands for this setting: dose: 12.5 mg/kg/injection, schedule: Q01DX009 (ip), vehicle: saline with Tween-80.
Where [5] appears, read: dose: 25.0 mg/kg/injection, schedule: Q01DX009 (ip), vehicle: saline with Tween-80.
[6] abbreviates: dose: 50.0 mg/kg/injection, schedule: Q01DX009 (ip), vehicle: saline with Tween-80.
Where [7] appears, read: dose: 100.0 mg/kg/injection, schedule: Q01DX009 (ip), vehicle: saline with Tween-80.
[8] abbreviates: dose: 3.12 mg/kg/injection, schedule: Q01DX009 (ip), vehicle: saline with Tween-80.
[9] abbreviates: dose: 200.0 mg/kg/injection, schedule: Q01DX009 (ip), vehicle: saline with Tween-80.
The mark [10] stands for this setting: dose: 25.0 mg/kg/injection, schedule: Q01DX009 (ip), vehicle: Klucel (hydroxypropylcellulose) (HPC).
[11] abbreviates: dose: 50.0 mg/kg/injection, schedule: Q01DX009 (ip), vehicle: Klucel (hydroxypropylcellulose) (HPC).
The mark [12] stands for this setting: dose: 100.0 mg/kg/injection, schedule: Q01DX009 (ip), vehicle: Klucel (hydroxypropylcellulose) (HPC).
[13] abbreviates: dose: 200.0 mg/kg/injection, schedule: Q01DX009 (ip), vehicle: Klucel (hydroxypropylcellulose) (HPC).
Where [14] appears, read: dose: 100.0 mg/kg/injection, schedule: Q01DX009 (ip), vehicle: saline.

“And” between values parts separate entries of the source, which are not always exact repeats. Equal values may be shown once. Inconclusive results and toxic doses are left out.

Regarding `COc1ccc(CC2C(=O)NC(C)C(=O)N(C)C3C(=O)N(C)C(Cc4ccc(O)c(c4)Oc4ccc(cc4)C3O)C(=O)NC(C)C(=O)NC(C)C(=O)N2C)cc1` (stereo unspecified), the T/C is, setting by setting: (dose: 0.25 mg/kg/injection, schedule: Q01DX005 (ip), vehicle: saline with Tween-80) 123 % of control; (dose: 0.25 mg/kg/injection, schedule: Q01DX005 (iv), vehicle: saline with Tween-80) 89 % of control and 107 % of control; (dose: 0.5 mg/kg/injection, schedule: Q01DX005 (iv), vehicle: saline with Tween-80) 98 % of control and 100 % of control; under setting [1], 174 % of control; (dose: 1.0 mg/kg/injection, schedule: Q01DX005 (iv), vehicle: saline with Tween-80) 98 % of control and 99 % of control; (dose: 2.0 mg/kg/injection, schedule: Q01DX005 (iv), vehicle: saline with Tween-80) 98 % of control and 104 % of control. The T/C under setting [2] is 152 % of control.
Turning to `C=C1C(=O)O[C@@H]2C[C@@H](C)[C@@H]3C=CC(=O)[C@@]3(C)[C@@H](OC(=O)CC(=O)O[C@H]3[C@@H]4C(=C)C(=O)O[C@@H]4C[C@@H](C)[C@@H]4C=CC(=O)[C@]43C)[C@H]12`, the T/C runs as follows: (dose: 0.25 mg/kg/injection, schedule: Q01DX009 (ip), vehicle: saline with Tween-80) 88 % of control; under setting [1], 96 % of control; (dose: 1.0 mg/kg/injection, schedule: Q01DX009 (ip), vehicle: saline with Tween-80) 102 % of control; under setting [2], 110 % of control; (dose: 4.0 mg/kg/injection, schedule: Q01DX009 (ip), vehicle: saline with Tween-80) 116 % of control.
Take `CCCC(=O)O.CCCC(=O)O.CCCC(=O)O.CCCC(=O)O.[Rh].[Rh]`: the T/C reads like this: (dose: 0.03 mg/kg/injection, schedule: Q01DX009 (ip), vehicle: saline + alcohol) 100 % of control and 101 % of control; (dose: 0.06 mg/kg/injection, schedule: Q01DX009 (ip), vehicle: saline + alcohol) 103 % of control and 104 % of control; (dose: 0.12 mg/kg/injection, schedule: Q01DX009 (ip), vehicle: saline + alcohol) 100 % of control and 107 % of control; (dose: 0.25 mg/kg/injection, schedule: Q01DX009 (ip), vehicle: saline + alcohol) 98 % of control and 101 % of control; (dose: 0.5 mg/kg/injection, schedule: Q01DX009 (ip), vehicle: saline + alcohol) 101 % of control and 104 % of control; (dose: 1.0 mg/kg/injection, schedule: Q01DX009 (ip), vehicle: saline + alcohol) 108 % of control.
With `O=C1[C@H]2CCC[C@H]2[C@H]2CCC[C@@H]12`, the T/C by setting is: under setting [3], 102 % of control; under setting [4], 99 % of control; under setting [5], 100 % of control; under setting [6], 100 % of control; under setting [7], 100 % of control.
As to `CCc1nc(N)nc(N)c1-c1ccc(Cl)c([N+](=O)[O-])c1`, the T/C is 106 % of control (dose: 1.56 mg/kg/injection, schedule: Q01DX009 (ip), vehicle: saline with Tween-80); 105 % of control under setting [8]; 100 % of control (dose: 3.25 mg/kg/injection, schedule: Q01DX009 (ip), vehicle: saline with Tween-80); 111 % of control under setting [3]; 101 % of control (dose: 7.5 mg/kg/injection, schedule: Q01DX009 (ip), vehicle: saline with Tween-80); 103 % of control (dose: 15.0 mg/kg/injection, schedule: Q01DX009 (ip), vehicle: saline with Tween-80). In addition, the T/C is, setting by setting: (dose: 30.0 mg/kg/injection, schedule: Q01DX009 (ip), vehicle: saline with Tween-80) 104 % of control; (dose: 60.0 mg/kg/injection, schedule: Q01DX009 (ip), vehicle: saline with Tween-80) 114 % of control.
For `CC[C@H](CC[C@@H](C)C1CC[C@H]2[C@@H]3CC=C4C[C@@H](OP(=O)(N5CC5)N5CC5)CC[C@]4(C)[C@H]3CC[C@]12C)C(C)C` (stereo partly specified), the T/C under setting [4] was 95 % of control and 99 % of control; the T/C under setting [5] is 110 % of control and 101 % of control; the T/C under setting [6] is 90 % of control and 97 % of control; the T/C under setting [7] was 91 % of control and 94 % of control; the T/C under setting [9] was 93 % of control and 95 % of control.
`O=C1N[C@H]2[C@H](CS[C@H]2CCCCC(=O)N(CCP(c2ccccc2)c2ccccc2)CCP(c2ccccc2)c2ccccc2)N1`: the T/C under setting [10] was 110 % of control and 97 % of control; the T/C under setting [11] was 109 % of control and 101 % of control; the T/C under setting [12] was 105 % of control; the T/C under setting [13] was 113 % of control; the T/C (dose: 400.0 mg/kg/injection, schedule: Q01DX009 (ip), vehicle: Klucel (hydroxypropylcellulose) (HPC)) was 101 % of control.
Turning to `COc1cc([C@@H]2c3cc4c(cc3[C@H](OC3OC5COC(c6ccccc6)OC5C(O)C3O)[C@H]3COC(=O)[C@H]23)OCO4)cc(OC)c1OC` (stereo partly specified), the T/C runs as follows: under setting [3], 123 % of control; under setting [5], 154 % of control; under setting [6], 169 % of control and 177 % of control.
For `O=C1c2c(O)cccc2-c2nn(CCNCCO)c3ccc(NCCNCCO)c1c23`, the T/C reads like this: (dose: 2.75 mg/kg/injection, schedule: Q01DX009 (ip), vehicle: water) 250 % of control; (dose: 5.5 mg/kg/injection, schedule: Q01DX009 (ip), vehicle: water) 158 % of control.
Take `CN(C)CCC(O)c1c[nH]c2ccccc12` (stereo unspecified): the T/C reads like this: under setting [7], 98 % of control; under setting [9], 94 % of control; (dose: 400.0 mg/kg/injection, schedule: Q01DX009 (ip), vehicle: saline with Tween-80) 94 % of control.
Take `COc1cc2cc(c1Cl)N(C)C(=O)/C=C/C1(C)OC1C(C)C1CC(O)(NC(=O)O1)C(OC)/C=C/C=C(\C)C2OC` (stereo unspecified): the T/C (dose: 4.0 micrograms/kg/injection, schedule: Q01DX009 (ip), vehicle: distilled water + alcohol) is 117 % of control; the T/C (dose: 8.0 micrograms/kg/injection, schedule: Q01DX009 (ip), vehicle: distilled water + alcohol) is 105 % of control; the T/C (dose: 16.0 micrograms/kg/injection, schedule: Q01DX009 (ip), vehicle: distilled water + alcohol) was 112 % of control.
For `N#CC(Br)(Br)C(N)=O`, the T/C runs as follows: (dose: 0.31 mg/kg/injection, schedule: Q01DX009 (ip), vehicle: saline) 96 % of control; (dose: 1.25 mg/kg/injection, schedule: Q01DX009 (ip), vehicle: saline) 87 % of control; (dose: 37.5 micrograms/kg/injection, schedule: Q01DX009 (ip), vehicle: saline) 98 % of control; (dose: 75.0 micrograms/kg/injection, schedule: Q01DX009 (ip), vehicle: saline) 98 % of control; (dose: 150.0 micrograms/kg/injection, schedule: Q01DX009 (ip), vehicle: saline) 96 % of control; (dose: 300.0 micrograms/kg/injection, schedule: Q01DX009 (ip), vehicle: saline) 93 % of control.
Turning to `NC(=S)c1ncn(C2OC(COC=O)C(OC=O)C2OC=O)c1NC=O` (stereo unspecified), the T/C runs as follows: under setting [10], 100 % of control; under setting [11], 100 % of control; under setting [12], 92 % of control; under setting [13], 87 % of control.
On to `OC1COC(c2ccccc2)OC1C1OC(c2ccccc2)OC2COC(c3ccccc3)OC21` (stereo unspecified), for which the T/C is, setting by setting: under setting [8], 93 % of control; under setting [3], 93 % of control; under setting [4], 91 % of control.
On to `NC(CCCNc1ccc(O)cc1)C(=O)O` (stereo unspecified), for which the T/C was 122 % of control (dose: 75.0 mg/kg/injection, schedule: Q01DX009 (ip), vehicle: saline); 98 % of control under setting [14]; 106 % of control (dose: 150.0 mg/kg/injection, schedule: Q01DX009 (ip), vehicle: saline).
Take `CC(=O)Nc1ccc(C(=O)C=O)cc1`: the T/C runs as follows: under setting [3], 101 % of control and 103 % of control; under setting [4], 116 % of control and 106 % of control; under setting [5], 112 % of control and 101 % of control; under setting [6], 112 % of control and 115 % of control; under setting [7], 102 % of control and 103 % of control.
Take `Cc1nnc(SCC2=C(C(=O)O)N3C(=O)C(NC(=O)Cn4cnnn4)C3SC2)s1` (stereo unspecified): the T/C (dose: 50.0 mg/kg/injection, schedule: Q01DX009 (ip), vehicle: saline) is 91 % of control; the T/C under setting [14] is 93 % of control; the T/C (dose: 200.0 mg/kg/injection, schedule: Q01DX009 (ip), vehicle: saline) is 95 % of control.
